In patent US10316017B2, “COT modulators and methods of use thereof” (Gilead Sciences, Inc., priority 2015, dated 2019) one finds EC50 and IC50 data, which are given here for 21 compounds.

Read-outs that look alike come from different tables or passages of the source.

Test [1] concerns TNFα production in LPS-stimulated human monocytes. As to the kind of experiment: Cot Monocyte TNFα Cell Based Assay. The settings on record: Homo sapiens, Monocyte, read-out: EC50 TNF. The essentials:
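TNFα release quantified by two-antibody TR-FRET, normalised to unstimulated (0%) and LPS-stimulated (100%) wells. Cells got a 1 h compound exposure at 37° C in 0.5% DMSO before 4 h challenge with 50 pg/ml LPS, at 5,000 cells/well.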

For test [2], the target named is T1, human Cot catalytic domain (30-397 amino acids) (Homo sapiens, UniProt P41279).
T1 construct: Purified recombinant human Cot catalytic domain (30-397 amino acids) was purchased from Cama Biosciences; purchased Cama Biosciences (so in the source)
As to the kind of experiment: High Throughput Cot Biochemical Assay (KinEASE TR-FRET). The settings on record: read-out: IC50 HTRF. In outline:
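TR-FRET (KinEASE) read-out: Eu-labelled phospho-specific antibody binds XL665-tagged STK3 peptide (1 μM) phosphorylated by 5 nM human Cot kinase domain (residues 30-397). Reaction at 400 μM ATP, pH 7.0 MOPS buffer with 10 mM MgOAc, 1 mM DTT and 0.1% DMSO.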

Where [3] appears, read: TNFα in LPS-stimulated human monocytes.
Where [4] appears, read: Cot biochemical HTRF (KinEASE TR-FRET) assay.
Setting [5] is: Cot KinEASE TR-FRET (HTRF) biochemical assay, 400 μM ATP.
The mark [6] stands for this setting: LPS-stimulated human monocytes, TNFα TR-FRET.
The mark [7] stands for this setting: Cot KinEASE TR-FRET, 400 μM ATP.

T1 sequence (P41279 30-397): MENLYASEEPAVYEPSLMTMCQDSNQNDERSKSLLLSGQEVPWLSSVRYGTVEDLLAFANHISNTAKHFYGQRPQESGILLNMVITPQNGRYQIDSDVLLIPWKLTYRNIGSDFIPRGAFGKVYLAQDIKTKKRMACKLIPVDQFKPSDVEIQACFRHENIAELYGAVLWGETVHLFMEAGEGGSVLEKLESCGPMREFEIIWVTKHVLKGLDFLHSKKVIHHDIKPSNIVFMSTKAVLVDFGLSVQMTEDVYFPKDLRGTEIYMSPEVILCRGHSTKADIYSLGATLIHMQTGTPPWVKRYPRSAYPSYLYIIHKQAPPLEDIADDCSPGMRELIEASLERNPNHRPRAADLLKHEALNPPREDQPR

As usually defined, the EC50 is the concentration at which the effect is half-maximal. As usually defined, the IC50 is the concentration at which inhibition is half-maximal. For the compound `CC(C)(C)N1CCC(n2cc([C@@H](Nc3cc(Cl)c4ncc(C#N)c(Nc5ccc(F)c(C(F)(F)F)c5)c4c3)c3ccccc3)nn2)CC1` [Example 505, (S)-6-(((1-(1-(tert-butyl)piperidin-4-yl)-1H-1,2,3-triazol-4-yl)(phenyl)methyl)amino)-8-chloro-4-((4-fluoro-3-(trifluoromethyl)phenyl)amino)quinoline-3-carbonitrile], the 50% effective concentration (EC50) in test [1] (setting [3]) came out at 2620 nM. Besides, in test [2] (setting [4]), the IC50 is 240 nM.

As to `COCCNc1c(C#N)cnc2c(Cl)cc(N[C@@H](c3ccccc3)c3cn(C4CCN(C(C)(C)C)CC4)nn3)cc12` [Example 554, (S)-6-(((1-(1-(tert-butyl)piperidin-4-yl)-1H-1,2,3-triazol-4-yl)(phenyl)methyl)amino)-8-chloro-4-((2-methoxyethyl)amino)quinoline-3-carbonitrile], the EC50 in test [1] (setting [3]) came out at 8250 nM. Moreover, the half-inhibitory concentration (IC50) in test [2] (setting [4]) was 1300 nM.

On to `[2H][C@](Nc1cc(Cl)c2ncc(C#N)c(Nc3cnc(F)c(F)c3)c2c1)(c1ccc(F)cc1)c1cn(C2CS(=O)(=O)C2)nn1` [Example 359, (S)-8-chloro-4-((5,6-difluoropyridin-3-yl)amino)-6-(((1-(1,1-dioxidothietan-3-yl)-1H-1,2,3-triazol-4-yl)(4-fluorophenyl)methyl-d)amino)quinoline-3-carbonitrile], for which the EC50 in test [1] (setting [3]) is 2260 nM. For the same compound, the IC50 in test [2] (setting [5]) amounted to 53 nM.

As to `Cc1c([C@H](Nc2cc(C#N)c3ncc(C#N)c(NCC(C)(C)C)c3c2)c2cn(C3(C(F)(F)F)CC3)nn2)cccc1-n1nccn1` [Example 1044, (S)-6-(((2-methyl-3-(2H-1,2,3-triazol-2-yl)phenyl)(1-(1-(trifluoromethyl)cyclopropyl)-1H-1,2,3-triazol-4-yl)methyl)amino)-4-(neopentylamino)quinoline-3,8-dicarbonitrile], in test [1] (setting [6]), the EC50 was 214 nM. Further, the IC50 in test [2] (setting [7]) was 8 nM.

For the compound `CN(c1cccc([C@H](Nc2cc(Cl)c3ncc(C#N)c(Nc4ccc(F)c(Cl)c4)c3c2)c2cn(C3CCN(C(C)(C)C)CC3)nn2)c1)S(C)(=O)=O` [Example 568, (S)-N-(3-((1-(1-(tert-butyl)piperidin-4-yl)-1H-1,2,3-triazol-4-yl)((8-chloro-4-((3-chloro-4-fluorophenyl)amino)-3-cyanoquinolin-6-yl)amino)methyl)phenyl)-N-methylmethanesulfonamide], in test [1] (setting [3]), the EC50 was 143 nM. Moreover, the IC50 in test [2] (setting [4]) is 2 nM.

Regarding `CC(C)(C)N1CCC(n2cc([C@@H](Nc3cc(Cl)c4ncc(C#N)c(NC5CCC5)c4c3)c3ccc(Cl)cc3)nn2)CC1` [Example 702, (S)-6-(((1-(1-(tert-butyl)piperidin-4-yl)-1H-1,2,3-triazol-4-yl)(4-chlorophenyl)methyl)amino)-8-chloro-4-(cyclobutylamino)quinoline-3-carbonitrile], the EC50 in test [1] (setting [3]) came out at 17600 nM. The IC50 in test [2] (setting [4]) came out at 314 nM.

As for `[2H][C@](Nc1cc(C#N)c2ncc(C#N)c(NCC(C)(C)C)c2c1)(c1ccc(F)cc1)c1cn(Cc2c(F)cccc2F)nn1` [Example 1078, (S)-6-(((1-(2,6-difluorobenzyl)-1H-1,2,3-triazol-4-yl)(4-fluorophenyl)methyl-d)amino)-4-(neopentylamino)quinoline-3,8-dicarbonitrile], the EC50 in test [1] (setting [6]) was 175 nM. The IC50 in test [2] (setting [7]) worked out at 12 nM.

With `[2H][C@](Nc1cc(Cl)c2ncc(C#N)c(NC(C)(C)C)c2c1)(c1ccc(F)cc1)c1cn(C2CC2)nn1` [Example 283, (S)-4-(tert-butylamino)-8-chloro-6-(((1-cyclopropyl-1H-1,2,3-triazol-4-yl)(4-fluorophenyl)methyl-d)amino)quinoline-3-carbonitrile], the EC50 in test [1] (setting [3]) came to 764 nM. Also, in test [2] (setting [5]), the IC50 amounted to 90 nM.

Consider `[2H][C@](Nc1cc(Cl)c2ncc(C#N)c(Nc3cnc(F)c(F)c3)c2c1)(c1ccc(F)cc1)c1cn(C2CC2)nn1` [Example 382, (S)-8-chloro-6-(((1-cyclopropyl-1H-1,2,3-triazol-4-yl)(4-fluorophenyl)methyl-d)amino)-4-((5,6-difluoropyridin-3-yl)amino)quinoline-3-carbonitrile], for which the EC50 in test [1] (setting [3]) stood at 323 nM. Further, in test [2] (setting [5]), the IC50 turned out to be 8 nM.

In the case of `[2H][C@](Nc1cc(Cl)c2ncc(C#N)c(Nc3cccc(Cl)c3C(C)=O)c2c1)(c1ccc(F)cc1)c1cn(C2CC2)nn1` [Example 946, (S)-4-((2-acetyl-3-chlorophenyl)amino)-8-chloro-6-(((1-cyclopropyl-1H-1,2,3-triazol-4-yl) (4-fluorophenyl)methyl-d)amino)quinoline-3-carbonitrile], in test [1] (setting [6]), the 50% effective concentration (EC50) was no less than 1000 nM. For the same compound, the IC50 in test [2] (setting [7]) was 745 nM.

As for `CC(C)(C)N1CCC(n2cc([C@@H](Nc3cc(Cl)c4ncc(C#N)c(Nc5ccc(F)c(Cl)c5)c4c3)c3cccc(I)c3)nn2)CC1` [Example 643], the EC50 in test [1] (setting [3]) came to 151 nM. Besides, in test [2] (setting [4]), the IC50 was determined as 7 nM.

As to `CNC(=O)c1cccc([C@H](Nc2cc(Cl)c3ncc(C#N)c(Nc4ccc(F)c(Cl)c4)c3c2)c2cn(C3CCN(C(C)(C)C)CC3)nn2)c1` [Example 690, (S)-3-((1-(1-(tert-butyl)piperidin-4-yl)-1H-1,2,3-triazol-4-yl)((8-chloro-4-((3-chloro-4-fluorophenyl)amino)-3-cyanoquinolin-6-yl)amino)methyl)-N-methylbenzamide], the EC50 in test [1] (setting [3]) turned out to be 317 nM. Moreover, the IC50 in test [2] (setting [4]) was found to be 2 nM.

On to `CC(C)(C)N1CCC(n2cc([C@@H](Nc3cc(Cl)c4ncc(C#N)c(Nc5ccccc5F)c4c3)c3ccc(Cl)cc3)nn2)CC1` [Example 768, (S)-6-(((1-(1-(tert-butyl)piperidin-4-yl)-1H-1,2,3-triazol-4-yl)(4-chlorophenyl)methyl)amino)-8-chloro-4-((2-fluorophenyl)amino)quinoline-3-carbonitrile], for which, in test [1] (setting [3]), the EC50 is 2500 nM. The IC50 in test [2] (setting [4]) was 83 nM.

For `CCN1CCC(n2cc([C@@H](Nc3cc(Cl)c4ncc(C#N)c(Nc5cccc(Cl)c5)c4c3)c3ccccc3)nn2)[C@H](O)C1` (stereo partly drawn) [Example 516], in test [1] (setting [3]), the EC50 came to 92 nM. The IC50 in test [2] (setting [4]) was found to be 4 nM.

Consider `N#Cc1cnc2c(Cl)cc(N[C@H](c3cn(C4COC4)nn3)c3c(F)cc(F)cc3F)cc2c1Nc1cnc(F)c(F)c1` [Example 500, (S)-8-chloro-4-((5,6-difluoropyridin-3-yl)amino)-6-(((1-(oxetan-3-yl)-1H-1,2,3-triazol-4-yl)(2,4,6-trifluorophenyl)methyl)amino)quinoline-3-carbonitrile], for which the EC50 in test [1] (setting [3]) was 2160 nM. Further, the IC50 in test [2] (setting [4]) came to 92 nM.

Turning to `CC[C@@H](Nc1c(C#N)cnc2c(C#N)cc(N[C@H](c3cn(C4CC4)nn3)c3ccccc3Cl)cc12)c1ccccc1` [Example 210, 6-(((S)-(2-chlorophenyl)(1-cyclopropyl-1H-1,2,3-triazol-4-yl)methyl)amino)-4-(((R)-1-phenylpropyl)amino) quinoline-3,8-dicarbonitrile], the EC50 in test [1] (setting [3]) turned out to be 243 nM. Further, the IC50 in test [2] (setting [5]) stood at 6 nM.

With `CC[C@@H](Nc1c(C#N)cnc2c(Cl)cc(N[C@@H](c3cccc(C(=O)N4CC(F)(F)C4)c3)c3c[nH]nn3)cc12)c1ccccc1` [Example 561, 8-chloro-6-(((S)-(3-(3,3-difluoroazetidine-1-carbonyl)phenyl)(1H-1,2,3-triazol-4-yl)methyl)amino)-4-(((R)-1-phenylpropyl)amino)quinoline-3-carbonitrile], the EC50 in test [1] (setting [3]) amounted to 1150 nM. In addition, the IC50 in test [2] (setting [4]) stood at 6 nM.

For `[2H][C@](Nc1cc(Cl)c2ncc(C#N)c(N[C@H](CCC#N)c3ccccc3)c2c1)(c1ccc(F)cc1)c1cn(C2CC2)nn1` [Example 249, 8-chloro-4-(((R)-3-cyano-1-phenylpropyl)amino)-6-(((S)-(1-cyclopropyl-1H-1,2,3-triazol-4-yl)(4-fluorophenyl)methyl-d)amino)quinoline-3-carbonitrile], the EC50 in test [1] (setting [3]) was 21 nM. Besides, the half-maximal inhibitory concentration (IC50) in test [2] (setting [5]) worked out at 1 nM.

For `CC(F)(F)CNc1c(C#N)cnc2c(Cl)cc(N[C@@H](c3ccc(F)cc3)c3cn(C4CC4)nn3)cc12` [Example 349, (S)-8-chloro-6-(((1-cyclopropyl-1H-1,2,3-triazol-4-yl)(4-fluorophenyl)methyl)amino)-4-((2,2-difluoropropyl)amino)quinoline-3-carbonitrile], the EC50 in test [1] (setting [3]) turned out to be 687 nM. For the same compound, in test [2] (setting [5]), the IC50 is 131 nM.

Take `Cn1cc(Nc2c(C#N)cnc3c(Cl)cc(N[C@@H](c4ccccc4)c4cn(C5COC5)nn4)cc23)ccc1=O` [Example 483, (S)-8-chloro-4-((1-methyl-6-oxo-1,6-dihydropyridin-3-yl)amino)-6-(((1-(oxetan-3-yl)-1H-1,2,3-triazol-4-yl)(phenyl)methyl)amino) quinoline-3-carbonitrile]: in test [1] (setting [3]), the EC50 is greater than 10000 nM. The IC50 in test [2] (setting [4]) was found to be 387 nM.

Consider `[2H][C@](Nc1cc(Cl)c2ncc(C#N)c(NC(CC#N)c3ccccc3)c2c1)(c1ccc(F)cc1)c1cn(-c2cccnc2)nn1` (stereo partly drawn) [Example 267, 8-chloro-4-((2-cyano-1-phenylethyl)amino)-6-(((S)-(4-fluorophenyl)(1-(pyridin-3-yl)-1H-1,2,3-triazol-4-yl)methyl-d)amino)quinoline-3-carbonitrile], for which, in test [1] (setting [3]), the EC50 stood at 194 nM. Besides, the 50% inhibitory concentration (IC50) in test [2] (setting [5]) amounted to 7 nM.
